Values joined by “and” are separate entries in the source; they are usually repeats but may differ in a detail not shown here. Identical values can stand only once. “Also recorded” adds a separate entry of the source. Like-named read-outs stand apart in the source and are kept apart here.
Experiments:
[1] = Plasma concentration of acetazolamide (total and free) in glaucoma patients, before/after diflunisal; format: in vivo, human; conditions: for concentration: 15 patients, read-out: total acetazolamide plasma level
Method: (§1) In 15 acetazolamide-treated patients 2-3 cc of venous blood was drawn before and again, at the same time of day, after one week on diflunisal for determination of total plasma concentration of acetazolamide. The blood sample underwent centrifugation at 5000 rpm for 5 minutes, and the plasma was separated and refrigerated until analysis. In addition, the plasma of seven of these 15 acetazolamide-treated patients was subjected to dialysis for determination of binding to albumin.
A blood sample was also taken from six acetazolamide-treated patients twice at a one week interval without diflunisal treatment.
(§2) Acetazolamide was analyzed by assay against carbonic anhydrase (Maren, T. H., J. Pharmacol. Exp. Therap.. 130:26 (1960)). Dialysis was carried out in a specially constructed cell consisting of two chambers of 1 ml capacity separated by Spectra/Por membrane, MW cutoff 6,000-8,000, Spectrum Med. Industries. One ml plasma, after analysis for total drug, was introduced to one compartment and 1 ml physiological saline to the other. The solutions were each mixed for 18 hours at 25* and then analyzed and calculated for free and total drug.

[2] = Plasma protein binding (background and discussion); format: in vitro ADME; conditions: read-out: plasma albumin binding of acetazolamide (converted)
[3] = In vitro plasma binding of acetazolamide with graded concentrations of diflunisal (dialysis); format: in vitro ADME; conditions: human, 90 μM acetazolamide
Method: An in vitro study was performed for the effect of graded doses of diflunisal on the plasma binding of acetazolamide. Both drugs were added to plasma of a single non-glaucomatous individual and duplicate dialyses were done.
as §2
^a In Vitro plasma binding of 90 μM acetazolamide in a single
individual ([…]) following graded concentrations of diflunisal.

glaucoma patients = assay: Side effects in glaucoma patients after addition of diflunisal; conditions: acetazolamide plus diflunisal; severe nausea and extreme confusion
Method: (§3) All subjects taking part in this study participated voluntarily and an informed consent was obtained from each prior to their enrollment in the study. Forty-eight glaucoma patients (19 men and 29 women) on maximally tolerated antiglaucoma medications were assigned consecutively to the study. […] All eyes were treated with at least one preparation of topical antiglaucoma medications; pilocarpine (60 eyes), epinephrine or dipivefrin hydrochloride (27 eyes), timolol, levobunolol or betaxolol (80 eyes), and echothiophate iodide (17 eyes). Upon entering the study each patient received a full ophthalmologic examination which included a visual acuity determination, slitlamp examination, IOP measurement (baseline) with a Goldmann applanation tonometer, gonioscopy, and a dilated fundus examination. Patients were instructed to take oral diflunisal, 500 mg, twice daily for one week, while their regular antiglaucoma medications remained unchanged. A week later patients were examined again for visual acuity, slit lamp examination, IOP measurement and a history of side effects. Baseline and follow-up IOP was measured by the same investigator using the same tonometer at approximately the same time of day.

[4] = Plasma unbound acetazolamide in patients by dialysis, before/after diflunisal; format: in vitro ADME; conditions: human, seven patients
Method: as §1, §2

[5] = system: glaucoma patients (intraocular pressure); assay: Change in intraocular pressure (IOP) in glaucoma patients after one week of added diflunisal; format: in vivo, human; conditions: for Change in IOP following diflunisal treatment: Table I, mean ± SD; for effect of diflunisal on hypotensive action / IOP (in words): diflunisal added to stated drug
Method: as §3

human plasma protein = conditions: cited from earlier work
[6] = cited from earlier work
[7] = in vivo; cited from earlier work
[8] = system: normal volunteers (intraocular pressure); assay: Change in intraocular pressure in normal volunteers (control group) given diflunisal alone; format: in vivo, human; conditions: normal controls
Method: Eight normal volunteers (52.3±16.4 years) on no medications participated in this study as a control group to study the ocular hypotensive effect of diflunisal itself and were given oral diflunisal, 500 mg, twice daily for one week. The examinations before and after diflunisal were similarly taken as glaucoma patients described above.

[9] = system: prostaglandin synthesis (cyclooxygenase); conditions: at high doses; cited from earlier work
[10] = system: plasma albumin / plasma protein; conditions: cited from earlier work
[11] = diflunisal 500 mg oral twice daily, one week, added to stated antiglaucoma medication

Q: What does the source list for `CC(=O)Nc1nnc(S(N)(=O)=O)s1` [Acetazolamide, 5-acetamido-1,3,4-thiadiazole-2-sulfonamide]?
A: concentration ([1]; after one week on diflunisal, P<0.015 vs baseline): 31.8 ± 16.1 µM; concentration ([1]; baseline before diflunisal): 19.1 ± 9.1 µM; increase in free plasma levels of acetazolamide ([1]; addition of diflunisal): 5.6 fold; increase in total plasma levels of acetazolamide ([1]; addition of diflunisal): ~50%; free (unbound) acetazolamide plasma concentration ([1]; after diflunisal): 5.6 ± 4.1 µM and 5.6 µM; free (unbound) acetazolamide plasma concentration ([1]; before diflunisal): 1.0 ± 0.6 µM and 1.0 µM; change in total acetazolamide plasma level over one week ([1]; six patients without additional diflunisal, P≥0.05): no significant change; fraction unbound ([2]; reduced by diflunisal): ~0.2; fraction unbound ([2]; without diflunisal): 0.03 to 0.07; fraction unbound at 18 h, 90 µM ([3]; diflunisal 0 μm): 0.07; fraction unbound at 18 h, 90 µM ([3]; diflunisal 200 μm): 0.14; fraction unbound at 18 h, 90 µM ([3]; diflunisal 400 μm): 0.22; fraction unbound at 18 h, 90 µM ([3]; diflunisal 600 μm): 0.26; patients dropped from study because of severe side effects (glaucoma patients): Two; fraction unbound at 18 h ([4]; after diflunisal): 0.162 ± 0.087; fraction unbound at 18 h ([4]; before diflunisal): 0.043 ± 0.027; relationship between daily dosage of acetazolamide and IOP reduction ([5]; FIG. 1, after one week of diflunisal): no relationship between the daily dosage of acetazolamide and the IOP reduction; Change in IOP following diflunisal treatment [5, 11]: -3.8 ± 3.1 mm Hg; effect of diflunisal on hypotensive action / IOP (in words) [5]: significant decrease in IOP

Q: Which “displacement of drugs from plasma protein” value (human plasma protein) does the source give for `O=C(O)c1cc(-c2ccc(F)cc2F)ccc1O` [Diflunisal, 2-(hydroxy)-5-(2,4-difluorophenyl) benzoic acid] here?
A: The value was “can unbind partially bound compounds such as salicylic acid and phenprocoumin”.

Q: And the “displacement of drugs from plasma protein” value (human plasma protein; listed as diflunisal)?
A: The value was “displace the following compounds from human plasma protein: salicylate and phenprocoumin”.

Q: What about the “time to steady state plasma levels” value ([6]; 500 mg twice daily) of the same molecule?
A: The value was 3 to 9 days.

Q: And the “time to peak plasma levels” value ([6]; in vivo, po)?
A: Its value is 2 to 3 h.

Q: And the “absorption from the intestines” value ([6]; in vivo)?
A: Its value is “well absorbed from the intestines”.

Q: And the excretion ([6]; in vivo)?
A: The excretion was “excreted mostly in the urine as a glucuronide”.

Q: And the “most frequent adverse reactions” value [7]?
A: The value was “nausea, gastrointestinal discomfort and diarrhea”.

Q: What about the tolerability versus aspirin [7] of the same molecule?
A: Its tolerability versus aspirin is “generally better tolerated than aspirin”.

Q: And the “Change in IOP following diflunisal treatment” value ([8]; Table I, diflunisal alone 500 mg twice daily, one week, n = 16 eyes, mean ± SD)?
A: The value was 0.0 ± 1.0 mm Hg.

Q: And the “change in IOP after diflunisal (in words)” value ([8]; diflunisal alone)?
A: The value was “no significant change in IOP; also recorded: did not result in a significant reduction of IOP”.

Q: What about the “inhibition of prostaglandin synthesis” value [9] of the same molecule?
A: Its value is “inhibits prostaglandin synthesis”.

Q: What about the “Change in IOP following diflunisal treatment” value ([5]; diflunisal 500 mg twice daily, one week, topically treated only, n = 22 eyes) of the same molecule?
A: Its value is -0.7 ± 2.1 mm Hg.

Q: And the “change in IOP after diflunisal (in words)” value ([5]; patients on topical medications alone, plus diflunisal)?
A: The value was “no significant change in IOP; also recorded: did not result in a significant reduction of IOP”.

Q: For `CC(=O)/N=c1/sc(S(N)(=O)=O)nn1C` [Methazolamide], which plasma protein binding [10] is on record?
A: The plasma protein binding was 55%.

Q: What about the “Change in IOP following diflunisal treatment” value [5, 11] of the same molecule?
A: The value was -1.6 ± 1.5 mm Hg.

Q: What about the “mean reduction of IOP” value ([5]; added diflunisal 500 mg twice daily, one week, vs baseline) of the same molecule?
A: Its value is 1.6±1.5 mm Hg.

Q: What about the “effect of diflunisal on hypotensive action / IOP (in words)” value [5] of the same molecule?
A: Its value is “did not result in a significant reduction of IOP; also recorded: did not affect the hypotensive action”.

Q: For `O=C(O)c1ccccc1O` [Salicylate, salicylic acid], which “unbinding of acetazolamide from plasma proteins” value (human plasma protein) is on record?
A: Its value is “unbind acetazolamide from plasma proteins”.

— patent US4933356A, “Diflunisal potentiation of acetazolamide in the control of intraocular pressure” (Cornell Research Foundation, Inc., priority 1988, dated 1990)
